ChEMBL document CHEMBL1201861, “Genomics of Drug Sensitity in Cancer screening data, Wellcome Trust Sanger Institute”

Legend:
Experiment in all cases: cells
[1] = test system: DU-4475; type: functional, cell-based, Homo sapiens; settings: Homo sapiens, DU-4475
Description: SANGER: Inhibition of human DU-4475 cell growth in a cell viability assay.

[2] = test system: LOX IMVI; type: functional, cell-based, Homo sapiens; settings: Homo sapiens, LOX IMVI
Description: SANGER: Inhibition of human LOXIMVI cell growth in a cell viability assay.

[3] = test system: 697; type: functional, cell-based, Homo sapiens; settings: Homo sapiens
Description: SANGER: Inhibition of human 697 cell growth in a cell viability assay.

[4] = test system: NH-12; type: functional, cell-based, Homo sapiens; settings: Homo sapiens, NH-12;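 further: growth inhibition of NH-12 cells, read out with a cell viability assay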
Description: SANGER: Inhibition of human NH-12 cell growth in a cell viability assay.

[5] = test system: NCI-H23; type: functional, cell-based, Homo sapiens; settings: Homo sapiens, NCI-H23;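 further: cell viability assay measuring growth inhibition of NCI-H23 cells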
Description: SANGER: Inhibition of human NCI-H23 cell growth in a cell viability assay.

[6] = test system: IA-LM; type: functional, cell-based; settings: Homo sapiens;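 further: cell viability assay measuring growth inhibition of human IA-LM cells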
Description: SANGER: Inhibition of human IA-LM cell growth in a cell viability assay.

[7] = test system: ES4; type: functional, cell-based, Homo sapiens; settings: Homo sapiens, ES4;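 further: growth inhibition of human ES4 cells, read out by a cell viability assay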
Description: SANGER: Inhibition of human ES4 cell growth in a cell viability assay.

[8] = test system: MZ7-mel; type: functional, cell-based, Homo sapiens; settings: Homo sapiens, MZ7-mel;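 further: growth inhibition of human MZ7-mel cells, measured by a cell viability assay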
Description: SANGER: Inhibition of human MZ7-mel cell growth in a cell viability assay.

[9] = test system: MV4-11; type: functional, cell-based, Homo sapiens, MV-4-11; settings: Homo sapiens, MV4-11;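 further: cell viability readout measuring growth inhibition of human MV-4-11 cells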
Description: SANGER: Inhibition of human MV-4-11 cell growth in a cell viability assay.

[10] = test system: LS-513; type: functional, cell-based, Homo sapiens; settings: Homo sapiens, LS-513
Description: SANGER: Inhibition of human LS-513 cell growth in a cell viability assay.

[11] = test system: IST-SL1; type: functional, cell-based, Homo sapiens; settings: Homo sapiens, IST-SL1;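 further: growth inhibition of human IST-SL1 cells, read out with a cell viability assay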
Description: SANGER: Inhibition of human IST-SL1 cell growth in a cell viability assay.

[12] = test system: SK-N-FI; type: functional, cell-based, Homo sapiens; settings: Homo sapiens, SK-N-FI;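 further: cell viability assay measuring growth inhibition of human SK-N-FI cells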
Description: SANGER: Inhibition of human SK-N-FI cell growth in a cell viability assay.

[13] = test system: DoTc2-4510; type: functional, cell-based; settings: Homo sapiens
[14] = test system: KM-H2; type: functional, cell-based, Homo sapiens; settings: Homo sapiens, KM-H2;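 further: growth inhibition of KM-H2 cells, read out by a cell viability assay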
Description: SANGER: Inhibition of human KM-H2 cell growth in a cell viability assay.

[15] = test system: SCC-15; type: functional, cell-based, Homo sapiens; settings: Homo sapiens, SCC-15;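 further: growth inhibition of SCC-15 cells, read out with a cell viability assay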
Description: SANGER: Inhibition of human SCC-15 cell growth in a cell viability assay.

[16] = test system: HH; type: functional, cell-based, Homo sapiens; settings: Homo sapiens, HH
Description: SANGER: Inhibition of human HH cell growth in a cell viability assay.

[17] = test system: NCI-N87; type: functional, cell-based; settings: Homo sapiens;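 further: growth inhibition of human NCI-N87 cells, read out with a cell viability assay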
Description: SANGER: Inhibition of human NCI-N87 cell growth in a cell viability assay.

[18] = test system: NCI-H1299; type: functional, cell-based; settings: Homo sapiens;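 further: growth inhibition of human NCI-H1299 cells, read out by a cell viability assay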
Description: SANGER: Inhibition of human NCI-H1299 cell growth in a cell viability assay.

[19] = test system: BB30-HNC; type: functional, cell-based, Homo sapiens; settings: Homo sapiens, BB30-HNC;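 further: growth inhibition of the cultured cell line, read out by a cell viability assay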
Description: SANGER: Inhibition of human BB30-HNC cell growth in a cell viability assay.

[20] = test system: ONS-76; type: functional, cell-based, Homo sapiens; settings: Homo sapiens, ONS-76;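 further: growth inhibition of human ONS-76 cells, read out with a cell viability assay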
Description: SANGER: Inhibition of human ONS-76 cell growth in a cell viability assay.

[21] = test system: OS-RC-2; type: functional, cell-based, Homo sapiens; settings: Homo sapiens, OS-RC-2;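 further: growth inhibition of human OS-RC-2 cells, measured by a cell viability assay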
Description: SANGER: Inhibition of human OS-RC-2 cell growth in a cell viability assay.

[22] = test system: SK-PN-DW; type: functional, cell-based, Homo sapiens; settings: Homo sapiens, SK-PN-DW;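 further: growth inhibition measured with a viability assay on these cells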
Description: SANGER: Inhibition of human SK-PN-DW cell growth in a cell viability assay.

[23] = test system: LAMA-84; type: functional, cell-based, Homo sapiens; settings: Homo sapiens, LAMA-84;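 further: growth inhibition of LAMA-84 cells, read out with a cell viability assay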
Description: SANGER: Inhibition of human LAMA-84 cell growth in a cell viability assay.

[24] = test system: no-10; type: functional, cell-based, Homo sapiens; settings: Homo sapiens;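 further: growth inhibition of no-10 cells, read out with a cell viability assay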
Description: SANGER: Inhibition of human no-10 cell growth in a cell viability assay.

[25] = test system: C8166; type: functional, cell-based, Homo sapiens; settings: Homo sapiens, C8166;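 further: growth inhibition of human C8166 cells measured by a cell viability assay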
Description: SANGER: Inhibition of human C8166 cell growth in a cell viability assay.

[26] = test system: MHH-PREB-1; type: functional, cell-based, Homo sapiens; settings: Homo sapiens, MHH-PREB-1;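 further: cell viability assay measuring inhibition of proliferation of human MHH-PREB-1 cells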
Description: SANGER: Inhibition of human MHH-PREB-1 cell growth in a cell viability assay.

[27] = test system: ACN; type: functional, cell-based, Homo sapiens; settings: Homo sapiens, ACN;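 further: growth inhibition of the human ACN cell line, read out via cell viability testing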
Description: SANGER: Inhibition of human ACN cell growth in a cell viability assay.

[28] = test system: CCRF-CEM; type: functional, cell-based, Homo sapiens; settings: Homo sapiens, CCRF-CEM;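 further: inhibition of CCRF-CEM cell growth, measured by a cell viability assay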
Description: SANGER: Inhibition of human CCRF-CEM cell growth in a cell viability assay.

[29] = test system: Mo; type: functional, cell-based, Homo sapiens; settings: Homo sapiens, Mo
Description: SANGER: Inhibition of human Mo-T cell growth in a cell viability assay.

[30] = test system: KURAMOCHI; type: functional, cell-based, Homo sapiens; settings: Homo sapiens, KURAMOCHI;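 further: growth inhibition of KURAMOCHI cells, read out with a cell viability assay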
Description: SANGER: Inhibition of human KURAMOCHI cell growth in a cell viability assay.

[31] = test system: JAR; type: functional, cell-based, Homo sapiens; settings: Homo sapiens, JAR;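 further: growth inhibition of human JAR cells determined with a cell viability assay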
Description: SANGER: Inhibition of human JAR cell growth in a cell viability assay.

[32] = test system: L-363; type: functional, cell-based, Homo sapiens; settings: Homo sapiens, L-363
Description: SANGER: Inhibition of human L-363 cell growth in a cell viability assay.

[33] = test system: NCI-H1155; type: functional, cell-based, Homo sapiens; settings: Homo sapiens, NCI-H1155;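 further: cell growth inhibition measured by a viability assay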
Description: SANGER: Inhibition of human NCI-H1155 cell growth in a cell viability assay.

[34] = test system: HD-MY-Z; type: functional, cell-based, Homo sapiens; settings: Homo sapiens, HD-MY-Z;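 further: growth inhibition of HD-MY-Z cells, read out with a cell viability assay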
Description: SANGER: Inhibition of human HD-MY-Z cell growth in a cell viability assay.

[35] = test system: 8-MG-BA; type: functional, cell-based, Homo sapiens; settings: Homo sapiens, 8-MG-BA;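 further: growth inhibition of 8-MG-BA cells, read out with a cell viability assay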
Description: SANGER: Inhibition of human 8-MG-BA cell growth in a cell viability assay.

[36] = test system: DOHH-2; type: functional, cell-based, Homo sapiens; settings: Homo sapiens, DOHH-2;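 further: growth inhibition of human DOHH-2 cells, read out with a cell viability assay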
Description: SANGER: Inhibition of human DOHH-2 cell growth in a cell viability assay.

[37] = test system: NCI-H1650; type: functional, cell-based, Homo sapiens; settings: Homo sapiens, NCI-H1650;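 further: growth inhibition of human NCI-H1650 cells measured by a cell viability assay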
Description: SANGER: Inhibition of human NCI-H1650 cell growth in a cell viability assay.

[38] = test system: A498; type: functional, cell-based, Homo sapiens; settings: Homo sapiens, A498;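 further: growth inhibition of human A498 cells, read out with a cell viability assay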
Description: SANGER: Inhibition of human A498 cell growth in a cell viability assay.

[39] = test system: NCI-H226; type: functional, cell-based, Homo sapiens; settings: Homo sapiens, NCI-H226;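 further: cell viability read-out used to gauge growth inhibition of the cells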
Description: SANGER: Inhibition of human NCI-H226 cell growth in a cell viability assay.

[40] = test system: LB2241-RCC; type: functional, cell-based, Homo sapiens; settings: Homo sapiens, LB2241-RCC;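 further: cell viability assay measuring how strongly the cultured human renal carcinoma line is prevented from growing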
Description: SANGER: Inhibition of human LB2241-RCC cell growth in a cell viability assay.

[41] = test system: HCE-T; type: functional, cell-based, Homo sapiens; settings: Homo sapiens, HCE-T;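 further: cell viability assay read-out, reporting inhibition of HCE-T cell growth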
Description: SANGER: Inhibition of human HCE-T cell growth in a cell viability assay.

[42] = test system: RPMI-8866; type: functional, cell-based, Homo sapiens; settings: Homo sapiens, RPMI-8866
Description: SANGER: Inhibition of human RPMI-8866 cell growth in a cell viability assay.

[43] = test system: IST-MES1; type: functional, cell-based, Homo sapiens; settings: Homo sapiens, IST-MES1;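 further: growth inhibition of IST-MES1 cells, measured with a cell viability assay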
Description: SANGER: Inhibition of human IST-MES1 cell growth in a cell viability assay.

[44] = test system: HCC2157; type: functional, cell-based, Homo sapiens; settings: Homo sapiens, HCC2157;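 further: growth inhibition of the cancer cell line, read out as cell viability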
Description: SANGER: Inhibition of human HCC2157 cell growth in a cell viability assay.

[45] = test system: SK-UT-1; type: functional, cell-based, Homo sapiens; settings: Homo sapiens, SK-UT-1;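 further: growth inhibition of SK-UT-1 cells, measured by a cell viability assay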
Description: SANGER: Inhibition of human SK-UT-1 cell growth in a cell viability assay.

[46] = test system: NCI-H720; type: functional, cell-based, Homo sapiens; settings: Homo sapiens, NCI-H720;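 further: growth inhibition of human NCI-H720 cells determined by a cell viability assay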
Description: SANGER: Inhibition of human NCI-H720 cell growth in a cell viability assay.

[47] = test system: SBC-1; type: functional, cell-based, Homo sapiens; settings: Homo sapiens, SBC-1;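 further: cell viability assay measuring growth inhibition of the SBC-1 cell line, IC50 being the concentration that halves growth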
Description: SANGER: Inhibition of human SBC-1 cell growth in a cell viability assay.

[48] = test system: SNU-5; type: functional, cell-based, Homo sapiens; settings: Homo sapiens, SNU-5;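 further: cell viability readout used to measure growth inhibition in human NCI-SNU-5 cells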
Description: SANGER: Inhibition of human NCI-SNU-5 cell growth in a cell viability assay.

[49] = test system: JVM-2; type: functional, cell-based, Homo sapiens; settings: Homo sapiens, JVM-2;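 further: growth inhibition of JVM-2 cells determined by a cell viability assay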
Description: SANGER: Inhibition of human JVM-2 cell growth in a cell viability assay.

Measured: IC50

CS(=O)(=O)N1CCN(Cc2cc3nc(-c4cccc5[nH]ncc45)nc(N4CCOCC4)c3s2)CC1 [PICTILISIB]
0.304 µM: [40]
0.832 µM: [3]
2.05 µM: [4]
0.114 µM: [26]
2.04 µM: [2]
1.3 µM: [38]
0.111 µM: [16]
0.724 µM: [9]
2.03 µM: [23]
2.33 µM: [44]
2.13 µM: [17]
0.798 µM: [32]
0.64 µM: [7]
not listed: [45] | [46] | [47] | [48] | [49]
> 4 µM: all other assays above

O=C(NCCCNc1nc(Nc2cccc(NC(=O)N3CCCC3)c2)ncc1I)c1cccs1 [BX-795]
1.51 µM: [2]
0.0368 µM: [9]
4.65 µM: [16]
1.96 µM: [35]
3.44 µM: [31]
1.18 µM: [32]
2.69 µM: [33] | [40]
4.08 µM: [20]
4.85 µM: [6]
4.56 µM: [38]
2.81 µM: [26]
1.46 µM: [36]
1.02 µM: [3]
2.8 µM: [4]
3.87 µM: [34]
1.77 µM: [23]
2.29 µM: [45]
1.29 µM: [1]
2.32 µM: [11]
not listed: [46] | [47] | [48] | [49]
> 5 µM: all other assays above

NC(=O)c1ccc(N(C(N)=O)c2c(F)cccc2F)nc1-c1ccc(F)cc1F [VX-702]
0.236 µM: [47]
0.0168 µM: [46]
0.083 µM: [49]
not listed: [44]
> 2 µM: all other assays above
